From publication PMC10616469, “Pharmacokinetics and tissue distribution of four major bioactive components of Cynanchum auriculatum extract: a UPLC–MS/MS study in normal and functional dyspepsia rats” (Frontiers in Pharmacology, 2023)
Like-named read-outs stand apart in the source and are kept apart here.

Tests used:
[1] = Stability of the four compounds in plasma samples (QC samples); details: n = 5
Procedure: In a 1.5 mL EP tube, 100 μL of plasma sample was mixed with 10 µL 1% formic acid–water, 10 μL IS (0.2011 μg/mL), and 400 μL acetonitrile. The mixture was then vortexed for 5 min, followed by sonication for 10 min at 40 kHz and centrifugation at 14,000 rpm for 10 min. The supernatant obtained was transferred to another tube and evaporated to dryness under a nitrogen vacuum at 37°C. The residue obtained was reconstituted with 150 μL of the initial mobile phase, and the centrifugation process was repeated. The supernatant thus obtained was then used for further analysis.
Similarly, QC samples of three concentrations (low, medium, and high) were prepared.
The specificity of the method was evaluated by comparing the retention times of analytes and IS in the blank matrix, blank matrix spiked with the four analytes and IS, and the samples after oral administration of CA extract. Calibration curves were constructed by comparing the ratio of peak areas of the four analytes to that of IS versus the concentration of the four analytes. Calibration curves were fitted via linear weighted (1/X ^ 2 ) least–squares regression. The intra–and inter–day precision and accuracy were estimated by analyzing QC samples at different concentrations on the same day and three consecutive validation days, respectively. The extraction recovery was evaluated by determining the peak area of analytes in QC samples compared with that in extracted matrix samples. The relative standard deviation of the extraction recovery of analytes at each level was retained at ≤20.0%. The following parameters of stability were assessed: short–term stability (24 h at room temperature), processed sample stability (24 h at 4°C), freeze–thaw stability (3 cycles), and auto–sampler stability (6 h at room temperature). QC samples of different concentrations were used for stability analysis.

[2] = rat, in vivo
Procedure: (§1) UPLC–MS/MS analysis was conducted using the ACQUITY UPLC system (Waters Corp., Milford, MA, United States) equipped with a Xevo–TQ mass spectrometer (Waters Corp., Milford, MA, United States) with an electrospray ionization (ESI) interface and triple quadrupole mass analyzer.
(§2) The ACQUITY UPLC® BEH C18 column (2.1 mm × 50 mm, 1.7 μm, Waters, United States) was used for separation and was maintained at 40°C. The mobile phase consisted of 0.1% formic acid in water (A) and 0.1% formic acid–acetonitrile (B) for PK study and 0.2% formic acid in water (A) and 0.2% formic acid–acetonitrile (B) for tissue distribution study. The mobile phase was eluted as a gradient, as follows: 0–0.5 min, 10% B; 0.5–3.0 min, 15% B; 3.0–3.2 min, 25% B; 3.2–4.0 min, 30% B; 4.0–4.5 min, 32% B; 4.5–6.0 min, 90% B; and 6.0 min, 10% B. The flow rate was set at 0.35 mL/min and the injection volume was 2 μL for the PK study and 1 μL for the tissue distribution study.
(§3) The four active components of CA were quantified using multiple reaction monitoring under negative ion mode. The following m/z transitions were chosen for quantification: baishouwu benzophenone 301.00→283.00, deacylmetaplexigenin 379.15→361.20, qingyangshengenin 499.20→137.00, syringic acid 197.20→181.95, and puerarin (internal standard, IS) 415.10→267.05. The collision energy was 15, 15, 35, 15, and 35 V, respectively ([Sun et al., 2022]). ESI mode was operated under the following conditions: capillary voltage, 1 kV; desolvation gas (N2), 1000 L/h; collision gas (Ar2), 150 L/h; desolvation temperature, 400°C; and source temperature, 120°C.
(§4) Additionally, stomach and small intestinal tissues were diluted three times to obtain a tissue homogenate. Then, 300 μL of this tissue homogenate was mixed with 30 μL 1% formic acid-water, 20 μL IS, and 1.2 mL acetonitrile. The mixture was then vortexed for 5 min, sonicated for 10 min, and then stored at −20°C for 30 min. Subsequently, the mixture was centrifuged at 14,000 rpm for 10 min. The supernatant obtained was then transferred to another tube and evaporated to dryness at 37°C under nitrogen. The dried residue was reconstituted with 200 μL of the 50% methanol–water, and the centrifugation process was repeated. The obtained supernatant was then used for further analysis.
(§5) SD rats were randomly divided into normal and FD groups (n = 30 each) and orally administered 10 mL/kg of CA extract solution. The rats were sacrificed at 10, 30 min, 1, 2, and 4 h after administration (6 rats per time point). Subsequently, their heart, liver, spleen, lung, kidney, brain, small intestine, and stomach were removed. The tissue samples were then washed in saline solution and wiped with filter paper. Subsequently, all tissues were stored at −80°C until analysis.

[3] = Stability of the four compounds in tissue homogenate samples (QC samples); details: mean ± s, n = 5
Procedure: as §4
The appropriate amount of the reference substance was accurately weighed and dissolved in an appropriate amount of methanol to obtain stock solutions. The concentrations of the resulting stock solution were 0.9996 mg/mL for baishouwu benzophenone, 0.9518 mg/mL for deacylmetaplexigenin, 1.3660 mg/mL for qingyangshengenin, and 0.9898 mg/mL for syringic acid. Accurate volumes of each stock solution were mixed to obtain working solution, which was then serially diluted with methanol to provide standard working solutions. Similarly, QC samples of three concentrations (low, medium, and high) were prepared. All solutions were stored at −20°C for later use.
The following parameters of stability were assessed: short–term stability (24 h at room temperature), processed sample stability (24 h at 4°C), freeze–thaw stability (3 cycles), and auto–sampler stability (6 h at room temperature). QC samples of different concentrations were used for stability analysis.

[4] = PK study: plasma pharmacokinetics after oral administration of CA extract in normal and FD rats (UPLC-MS/MS); format: in vivo; details: Sprague-Dawley, rat; for AUC(0-inf) / AUC(0-t) / CL/F / Cmax / half-life: n = 6; for Vd/F: n = 6, read-out: Vz/F
Procedure: For PK experiments, an appropriate amount of the CA extract was weighed to prepare a 0.10 g/mL solution using physiological saline. Briefly, 12 SD rats were randomly assigned to normal and FD groups and were orally administered the prepared CA sample (10 mL/kg body weight). For assessment, 0.3 mL of blood was collected into heparinized tubes via the caudal vein before dosing and at 2, 5, 10, 15, 20, 30, and 45 min, and 1, 2, 4, 8, 12, 24, and 48 h after administration. Blood samples were then immediately centrifuged at 4,500 rpm for 15 min, and the obtained plasma samples were stored at −20°C until determination.
The PK parameters were analyzed using the non–compartment analysis using the WinNonLin 8.2 software (Phoenix, United States). All the data were expressed as mean ± standard deviation (SD). The normal and FD groups were compared using independent samples t–test in SPSS 22.0. Results with p values < 0.05 were considered statistically significant.

[5] = Tissue distribution study after oral administration of CA extract in normal and FD rats; details: distribution found in rat brain
Procedure: as §1, §2, §3, §4, §5

[6] = high QC (nominal 1666.00 / 3172.53 / 569.17 / 206.21 ng·mL^-1)
[7] = low QC (nominal 52.06 / 49.57 / 8.89 / 1.61 ng·mL^-1)
[8] = medium QC (nominal 208.25 / 396.57 / 71.13 / 25.78 ng·mL^-1)
[9] = Brain homogenate, highest QC (ng·mL^-1): Baishouwu benzophenone 131.10, Syringic acid 320.04, Qingyangshengenin 62.12, Deacylmetaplexigenin 677.19
[10] = Brain homogenate, lowest QC (ng·mL^-1): Baishouwu benzophenone 3.34, Syringic acid 8.18, Qingyangshengenin 1.58, Deacylmetaplexigenin 17.26
[11] = Brain homogenate, middle QC (ng·mL^-1): Baishouwu benzophenone 20.88, Syringic acid 51.14, Qingyangshengenin 9.90, Deacylmetaplexigenin 107.87
[12] = Heart homogenate, highest QC (ng·mL^-1): Baishouwu benzophenone 111.56, Syringic acid 340.93, Qingyangshengenin 350.76, Deacylmetaplexigenin 1522.88
[13] = Heart homogenate, lowest QC (ng·mL^-1): Baishouwu benzophenone 2.66, Syringic acid 8.11, Qingyangshengenin 8.35, Deacylmetaplexigenin 36.24
[14] = Heart homogenate, middle QC (ng·mL^-1): Baishouwu benzophenone 18.96, Syringic acid 57.96, Qingyangshengenin 59.63, Deacylmetaplexigenin 258.89
[15] = Kidney homogenate, highest QC (ng·mL^-1): Baishouwu benzophenone 768.40, Syringic acid 1230.44, Qingyangshengenin 844.98, Deacylmetaplexigenin 2249.71
[16] = Kidney homogenate, lowest QC (ng·mL^-1): Baishouwu benzophenone 9.84, Syringic acid 15.75, Qingyangshengenin 10.82, Deacylmetaplexigenin 28.80
[17] = Kidney homogenate, middle QC (ng·mL^-1): Baishouwu benzophenone 81.96, Syringic acid 131.25, Qingyangshengenin 90.13, Deacylmetaplexigenin 239.97
[18] = Liver homogenate, highest QC (ng·mL^-1): Baishouwu benzophenone 313.75, Syringic acid 268.07, Qingyangshengenin 4484.13, Deacylmetaplexigenin 3093.35
[19] = Liver homogenate, lowest QC (ng·mL^-1): Baishouwu benzophenone 1.77, Syringic acid 22.34, Qingyangshengenin 25.26, Deacylmetaplexigenin 16.38
[20] = Liver homogenate, middle QC (ng·mL^-1): Baishouwu benzophenone 27.19, Syringic acid 89.35, Qingyangshengenin 386.62, Deacylmetaplexigenin 268.09
[21] = Lung homogenate, highest QC (ng·mL^-1): Baishouwu benzophenone 630.29, Syringic acid 662.80, Qingyangshengenin 385.86, Deacylmetaplexigenin 1513.71
[22] = Lung homogenate, lowest QC (ng·mL^-1): Baishouwu benzophenone 17.66, Syringic acid 18.57, Qingyangshengenin 10.81, Deacylmetaplexigenin 42.42
[23] = Lung homogenate, middle QC (ng·mL^-1): Baishouwu benzophenone 105.98, Syringic acid 111.44, Qingyangshengenin 64.88, Deacylmetaplexigenin 254.52
[24] = Small intestine homogenate, highest QC (ng·mL^-1): Baishouwu benzophenone 39.22, Syringic acid 773.28, Qingyangshengenin 1726.39, Deacylmetaplexigenin 1206.41
[25] = Small intestine homogenate, lowest QC (ng·mL^-1): Baishouwu benzophenone 0.46, Syringic acid 9.31, Qingyangshengenin 20.77, Deacylmetaplexigenin 14.52
[26] = Small intestine homogenate, middle QC (ng·mL^-1): Baishouwu benzophenone 4.97, Syringic acid 97.95, Qingyangshengenin 218.68, Deacylmetaplexigenin 152.81
[27] = Spleen homogenate, highest QC (ng·mL^-1): Baishouwu benzophenone 658.88, Syringic acid 752.66, Qingyangshengenin 418.52, Deacylmetaplexigenin 1979.74
[28] = Spleen homogenate, lowest QC (ng·mL^-1): Baishouwu benzophenone 10.98, Syringic acid 12.54, Qingyangshengenin 6.98, Deacylmetaplexigenin 33.00
[29] = Spleen homogenate, middle QC (ng·mL^-1): Baishouwu benzophenone 87.85, Syringic acid 100.35, Qingyangshengenin 55.80, Deacylmetaplexigenin 263.97
[30] = Stomach homogenate, highest QC (ng·mL^-1): Baishouwu benzophenone 47.06, Syringic acid 257.76, Qingyangshengenin 1285.45, Deacylmetaplexigenin 1665.65
[31] = Stomach homogenate, lowest QC (ng·mL^-1): Baishouwu benzophenone 0.63, Syringic acid 3.44, Qingyangshengenin 17.14, Deacylmetaplexigenin 22.21
[32] = Stomach homogenate, middle QC (ng·mL^-1): Baishouwu benzophenone 6.28, Syringic acid 34.37, Qingyangshengenin 171.39, Deacylmetaplexigenin 222.09
[33] = FD group rats, oral CA extract (0.10 g/mL solution, 10 mL/kg)
[34] = Normal group rats, oral CA extract (0.10 g/mL solution, 10 mL/kg)

CC(=O)C1(O)CCC2(O)C3(O)CC=C4CC(O)CCC4(C)C3CC(O)C12C (stereo not shown) [Deacylmetaplexigenin]
Measured concentration, 4°C for 24 h [1, 6]: 3164.75 ± 84.97 ng/mL
Measured concentration, Three freeze-thaw cycles [1, 6]: 3053.63 ± 57.47 ng/mL
Measured concentration, 4°C for 24 h [1, 7]: 52.01 ± 2.68 ng/mL
Measured concentration, Three freeze-thaw cycles [1, 7]: 53.08 ± 3.47 ng/mL
Measured concentration, 4°C for 24 h [1, 8]: 406.61 ± 10.59 ng/mL
Measured concentration, Three freeze-thaw cycles [1, 8]: 352.32 ± 6.40 ng/mL
time after oral administration at which almost completely metabolized in tissues ([2]; Sprague-Dawley): 4 h
time of peak in most of organ tissues ([2]; Sprague-Dawley, po): 0.17 to 0.5 h
tissue with the highest concentration ([2]; po): stomach and small intestine
Auto-sampler for 6 h Measured concentration [3, 9]: 639.39 ± 12.53 ng/mL
Three freeze-thaw cycles Measured concentration [3, 9]: 657.30 ± 18.60 ng/mL
Auto-sampler for 6 h Measured concentration [3, 10]: 16.37 ± 0.20 ng/mL
Three freeze-thaw cycles Measured concentration [3, 10]: 16.11 ± 0.43 ng/mL
Auto-sampler for 6 h Measured concentration [3, 11]: 106.81 ± 0.35 ng/mL
Three freeze-thaw cycles Measured concentration [3, 11]: 107.57 ± 1.64 ng/mL
Auto-sampler for 6 h Measured concentration [3, 12]: 1545.69 ± 28.28 ng/mL
Three freeze-thaw cycles Measured concentration [3, 12]: 1530.72 ± 31.74 ng/mL
Auto-sampler for 6 h Measured concentration [3, 13]: 29.91 ± 0.63 ng/mL
Three freeze-thaw cycles Measured concentration [3, 13]: 30.14 ± 0.33 ng/mL
Auto-sampler for 6 h Measured concentration [3, 14]: 253.92 ± 7.65 ng/mL
Three freeze-thaw cycles Measured concentration [3, 14]: 251.51 ± 4.47 ng/mL
Auto-sampler for 6 h Measured concentration [3, 15]: 2268.44 ± 53.12 ng/mL
Three freeze-thaw cycles Measured concentration [3, 15]: 2270.72 ± 48.43 ng/mL
Auto-sampler for 6 h Measured concentration [3, 16]: 30.96 ± 0.89 ng/mL
Three freeze-thaw cycles Measured concentration [3, 16]: 30.51 ± 1.21 ng/mL
Auto-sampler for 6 h Measured concentration [3, 17]: 267.87 ± 13.29 ng/mL
Three freeze-thaw cycles Measured concentration [3, 17]: 266.54 ± 9.78 ng/mL
Auto-sampler for 6 h Measured concentration [3, 18]: 3350.30 ± 128.16 ng/mL
Three freeze-thaw cycles Measured concentration [3, 18]: 3302.83 ± 129.48 ng/mL
Auto-sampler for 6 h Measured concentration [3, 19]: 15.66 ± 0.68 ng/mL
Three freeze-thaw cycles Measured concentration [3, 19]: 15.51 ± 0.68 ng/mL
Auto-sampler for 6 h Measured concentration [3, 20]: 249.04 ± 7.02 ng/mL
Three freeze-thaw cycles Measured concentration [3, 20]: 245.11 ± 4.40 ng/mL
Auto-sampler for 6 h Measured concentration [3, 21]: 1544.16 ± 36.02 ng/mL
Three freeze-thaw cycles Measured concentration [3, 21]: 1549.77 ± 41.79 ng/mL
Auto-sampler for 6 h Measured concentration [3, 22]: 38.33 ± 2.37 ng/mL
Three freeze-thaw cycles Measured concentration [3, 22]: 37.62 ± 2.38 ng/mL
Auto-sampler for 6 h Measured concentration [3, 23]: 243.55 ± 12.09 ng/mL
Three freeze-thaw cycles Measured concentration [3, 23]: 240.11 ± 10.98 ng/mL
Auto-sampler for 6 h Measured concentration [3, 24]: 1293.63 ± 65.40 ng/mL
Three freeze-thaw cycles Measured concentration [3, 24]: 1296.24 ± 110.99 ng/mL
Auto-sampler for 6 h Measured concentration [3, 25]: 12.77 ± 1.27 ng/mL
Three freeze-thaw cycles Measured concentration [3, 25]: 12.39 ± 1.33 ng/mL
Auto-sampler for 6 h Measured concentration [3, 26]: 150.09 ± 2.73 ng/mL
Three freeze-thaw cycles Measured concentration [3, 26]: 154.01 ± 1.23 ng/mL
Auto-sampler for 6 h Measured concentration [3, 27]: 1990.73 ± 48.18 ng/mL
Three freeze-thaw cycles Measured concentration [3, 27]: 1950.06 ± 62.22 ng/mL
Auto-sampler for 6 h Measured concentration [3, 28]: 31.95 ± 1.48 ng/mL
Three freeze-thaw cycles Measured concentration [3, 28]: 32.15 ± 1.58 ng/mL
Auto-sampler for 6 h Measured concentration [3, 29]: 232.19 ± 3.53 ng/mL
Three freeze-thaw cycles Measured concentration [3, 29]: 247.56 ± 6.23 ng/mL
Auto-sampler for 6 h Measured concentration [3, 30]: 1622.87 ± 76.11 ng/mL
Three freeze-thaw cycles Measured concentration [3, 30]: 1662.82 ± 50.13 ng/mL
Auto-sampler for 6 h Measured concentration [3, 31]: 21.14 ± 1.50 ng/mL
Three freeze-thaw cycles Measured concentration [3, 31]: 21.58 ± 1.95 ng/mL
Auto-sampler for 6 h Measured concentration [3, 32]: 244.68 ± 7.59 ng/mL
Three freeze-thaw cycles Measured concentration [3, 32]: 245.34 ± 9.19 ng/mL
Tmax ([4]; 1 g/kg, oral CA extract, normal and FD rats, read-out: time of peak concentration (Tmax)): 20 to 30 min
AUC(0-inf) [4, 33]: 13900 ng·h/mL
AUC(0-t) [4, 33]: 13300 ng·h/mL
CL/F [4, 33]: 16.5 mL/min/kg
Cmax [4, 33]: 4510 ± 241 ng/mL
half-life [4, 33]: 772 ± 454 min
Tmax ([4]; FD group rats, oral CA extract (0.10 g/mL solution, 10 mL/kg), n = 6, read-out: Tmax): 19.8 ± 4.8 min
Vd/F [4, 33]: 18.1 ± 10.6 L/kg
AUC(0-inf) [4, 34]: 12300 ng·h/mL
AUC(0-t) [4, 34]: 11600 ng·h/mL
CL/F [4, 34]: 19.2 mL/min/kg
Cmax [4, 34]: 4680 ± 499 ng/mL
half-life [4, 34]: 602 ± 190 min
Tmax ([4]; Normal group rats, oral CA extract (0.10 g/mL solution, 10 mL/kg), n = 6, read-out: Tmax): 25.2 ± 6.6 min
Vd/F [4, 34]: 16 ± 3.79 L/kg
crossing of the blood-brain barrier [5]: could cross the blood-brain barrier
